Results as given in patent US9951104B2, “Peptides and methods of using same” (Serpin Pharma, LLC, priority 2012, dated 2018).
Entries after “also recorded” stand apart in the source; their conditions may differ.

Legend:
LPS challenged mice = experiment: Mouse LPS challenge model, serum TNF-alpha readout; format: in vivo; conditions: LPS challenged mice treated with alanine scanned SP16 peptides; compared to Dexamethasone (FIG. 10)
Procedure: In FIG. 10A the mice were treated with alanine scanned SP16 peptide. […] Based on this alanine screen, and without wishing to be bound by a theory, it appears that the C- and N-terminal amino acids contribute to the anti-inflammatory effect of the SP16 peptide. […] Groups of 3 animals were injected with 0.2 mg/kg peptide and subjected to LPS challenge. Serum TNF-alpha levels were determined by ELISA. Several peptides provided the same level of protection as 1 mg/kg Dexamethasone.
The ability of peptide drugs was tested to for their potential for the reduction of inflammatory cytokines following treatment with purified bacterial lipopolysaccharide (LPS)—a major component of bacterial cell wall of Gram negative bacteria. A model of inflammation was used wherein mice were injected with LPS, which induced a transient immune response and a surge of serum inflammatory cytokines. The immune response peaks after 90 minutes and subsides after 24 hours. The levels of key serum inflammatory markers were compared between mice treated and untreated with LPS 90 minutes after injection.
We designed 18 different peptides based on the hAAT sequence (Accession #AAB59371), and had these synthesized using conventional FMOC chemistry. To assess in vivo anti-inflammatory and therapeutic potential, the peptides were tested in a mouse lipopolysaccharide (LPS) challenge model with serum TNFα levels as readout. Using dexamethasone as reference, groups of 3 animals were IP injected with 0.2 mg/kg peptide 2 hours prior to an LPS challenge, and serum TNFα levels determined 30 min after the LPS challenge, by ELISA. The best performing peptide reduced serum TNFα levels equivalent to those achieved with 1 mg/kg dexamethasone. Next, shortened versions of this peptide were synthesized, tested in the mouse LPS challenge model, and a 17 amino acid peptide, SP16, emerged as a lead development candidate for further characterization. Next, SP16 was tested in a lethal endotoxemia model, which models endotoxemia following acute radiation exposure, where Gram negative bacteria leaking from the gastro-intestinal system can cause lethal endotoxemia.
Mice were injected with 0.5, 0.1, 0.02 and 0.004 mg of each peptide. Mice were also treated with dexamethasone as a positive control and vehicle as a negative control. Two hours later each mouse was injected with LPS. Samples were taken 90 minutes after LPS injection.
To evaluate the effect of different amino acids in the SP16 peptide for the immunomodulating effect, we created an alanine screen. […] The peptides wherein the substitution occurred within amino acids 4-14 of SP16, appeared to maintain and rather improve their capacity to reduce TNF-alpha levels compared to the control Dexamethasone. […]

hERG = biological target: T1, hERG (Homo sapiens, UniProt Q12809); experiment: hERG FastPatch assay; format: cell-based; conditions: test conc 0.008-25 μM
T1 construct: Apredica (contract study)
T1 sequence (Q12809 whole entry): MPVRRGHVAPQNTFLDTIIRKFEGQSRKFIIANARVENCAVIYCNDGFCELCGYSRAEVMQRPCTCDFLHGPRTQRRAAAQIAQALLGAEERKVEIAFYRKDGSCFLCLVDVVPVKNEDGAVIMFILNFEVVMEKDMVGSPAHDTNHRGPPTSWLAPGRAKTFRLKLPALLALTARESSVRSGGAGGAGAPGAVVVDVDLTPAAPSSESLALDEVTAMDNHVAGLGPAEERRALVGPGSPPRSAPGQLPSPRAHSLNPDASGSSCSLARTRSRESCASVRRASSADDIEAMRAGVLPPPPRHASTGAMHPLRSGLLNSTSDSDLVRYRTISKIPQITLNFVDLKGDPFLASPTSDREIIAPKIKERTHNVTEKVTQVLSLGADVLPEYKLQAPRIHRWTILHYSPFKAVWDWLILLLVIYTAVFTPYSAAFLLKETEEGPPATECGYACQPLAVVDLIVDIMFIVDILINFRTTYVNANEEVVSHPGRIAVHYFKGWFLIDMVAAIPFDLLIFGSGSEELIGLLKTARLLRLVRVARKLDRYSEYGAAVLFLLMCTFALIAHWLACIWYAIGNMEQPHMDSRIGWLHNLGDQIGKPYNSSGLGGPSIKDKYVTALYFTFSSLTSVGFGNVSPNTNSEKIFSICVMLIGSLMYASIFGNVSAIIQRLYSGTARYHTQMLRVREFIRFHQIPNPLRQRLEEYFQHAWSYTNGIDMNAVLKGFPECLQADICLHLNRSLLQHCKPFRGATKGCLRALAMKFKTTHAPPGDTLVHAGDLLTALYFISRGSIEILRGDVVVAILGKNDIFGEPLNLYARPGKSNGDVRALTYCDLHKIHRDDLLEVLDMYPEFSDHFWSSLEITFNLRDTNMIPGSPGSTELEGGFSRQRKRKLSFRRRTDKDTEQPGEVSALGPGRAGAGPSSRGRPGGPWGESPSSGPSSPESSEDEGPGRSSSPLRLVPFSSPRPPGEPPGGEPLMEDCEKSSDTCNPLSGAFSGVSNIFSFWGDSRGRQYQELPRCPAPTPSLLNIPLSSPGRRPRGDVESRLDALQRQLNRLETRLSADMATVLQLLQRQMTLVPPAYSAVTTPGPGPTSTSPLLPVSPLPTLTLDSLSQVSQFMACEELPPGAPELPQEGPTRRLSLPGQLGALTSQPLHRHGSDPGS

111 human receptors = experiment: GenSEP Explorer panel, human receptor panning; conditions: whole GenSEP Explorer panel
Source text: In addition, we also performed a profile using human receptor panning. The GenSEP Explorer panel contains 111 in vitro assay targets carefully selected to assess drug/chemical biological activities. Assay categories include GPCRs, Voltage-Gated Ion Channels, Ligand-Gated Ion Channels, Neurotransmitter transporters, Nuclear Receptors and Steroids as well as a diverse set of biochemical targets including Phosphodiesterases, Kinases and other relevant enzymes.

[1] = SP16 pharmacokinetic profile, plasma concentration by LC/MS/MS; format: in vivo, rat; conditions: SP16, IV (5 mg/kg), normal rats
Procedure: In performing the assay, three normal rats were injected intravenously with 5 mg/kg SP16 and the plasma concentration of SP16 established at 8 time points following the injection. […] The assay was executed by Apredica, Boston, Mass.

TLR-2 = biological target: T2, TLR-2 (Mus musculus, UniProt Q9QUN7); experiment: TLR-2 indicator cell line assay (HEK-Blue mTLR2, Invivogen), secreted alkaline phosphatase; format: cell-based; conditions: 20 μg/ml peptide for 24 hours (FIGS. 12, 13)
T2 construct: host or cells: HEK-Blue mTLR2 (engineered HEK reporter line secreting alkaline phosphatase)
T2 sequence (Q9QUN7 25-784): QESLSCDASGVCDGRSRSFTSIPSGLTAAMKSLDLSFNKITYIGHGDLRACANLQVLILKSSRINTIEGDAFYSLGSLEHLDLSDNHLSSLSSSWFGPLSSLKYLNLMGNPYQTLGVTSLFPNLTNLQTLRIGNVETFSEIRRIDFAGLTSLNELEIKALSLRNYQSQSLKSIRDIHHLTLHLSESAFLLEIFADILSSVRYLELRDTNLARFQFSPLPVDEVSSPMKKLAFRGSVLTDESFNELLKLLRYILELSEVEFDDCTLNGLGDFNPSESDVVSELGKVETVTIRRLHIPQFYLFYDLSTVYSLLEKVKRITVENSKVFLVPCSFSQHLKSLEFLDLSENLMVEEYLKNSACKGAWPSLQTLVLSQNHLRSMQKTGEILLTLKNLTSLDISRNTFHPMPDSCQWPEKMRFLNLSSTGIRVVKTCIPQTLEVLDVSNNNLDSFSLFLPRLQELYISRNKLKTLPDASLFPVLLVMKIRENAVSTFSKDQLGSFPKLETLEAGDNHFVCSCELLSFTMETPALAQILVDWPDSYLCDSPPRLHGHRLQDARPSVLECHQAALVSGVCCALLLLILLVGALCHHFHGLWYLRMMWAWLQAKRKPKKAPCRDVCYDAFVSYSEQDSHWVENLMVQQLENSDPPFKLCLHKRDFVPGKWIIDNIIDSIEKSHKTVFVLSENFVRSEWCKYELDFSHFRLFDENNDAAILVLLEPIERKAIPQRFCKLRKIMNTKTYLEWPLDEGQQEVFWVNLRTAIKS
Procedure: Graph summarizing representative data from assays with an engineered TLR-2 indicator cell line (HEK-Blue™ mTLR2, Invivogen). Cells were incubated with the indicated concentrations of peptide for 24 hours. Upon TLR2 activation, the cells secrete alkaline phosphatase which can be assayed. The assay was done in triplicate and averages with standard deviations are plotted.
Graph summarizing data from an experiment where an engineered TLR-2 indicator cell line (HEK-Blue™ mTLR2, Invivogen) was used to test the impact of substituting amino acid residues of the SP16 peptide with alanine (“alanine scan”). Cells were incubated with 20 μg/ml of the indicated peptides for 24 hours. Upon TLR2 activation, the cells secrete alkaline phosphatase which can be assayed. The assay was done in triplicate and averages are plotted. Peptide sequences are shown in the following figure. *p<0.05, compared with scrambled control (SP34).
We also performed a peptide optimization assay using an alanine scan with the TLR-2 assay. Data was obtained using an experiment with an engineered TLR-2 indicator cell line (HEK-BLUE™ mTLR2, Invivogen). Cells were incubated with the 20 μg/ml of the indicated peptides for 24 hours. Upon TLR2 activation, the cells secrete alkaline phosphatase which can be assayed. The assay was done in triplicate and averages are plotted. […]

| Molecule | TNF-alpha levels (LPS challenged mice) | also measured |
| --- | --- | --- |
| V K F N K P A A A L M I E Q N T K (VKFNKPAAALMIEQNTK; listed as Homo sapiens) [SP43] | reduce TNF-alpha levels more than Dexamethasone |  |
| V K F A A A F V F L M I E Q N T K (VKFAAAFVFLMIEQNTK; listed as Homo sapiens) [SP40] | reduce TNF-alpha levels more than Dexamethasone |  |
| V K F N K P F V F A A A E Q N T K (VKFNKPFVFAAAEQNTK; listed as Homo sapiens) [SP46] | reduce TNF-alpha levels more than Dexamethasone |  |
| V K F N K P F V F L M I A A A T K (VKFNKPFVFLMIAAATK; listed as Homo sapiens) [SP49] | reduce TNF-alpha levels more than Dexamethasone |  |
| CC[C@H](C)[C@H](NC(=O)[C@H](CCSC)NC(=O)[C@H](CC(C)C)NC(=O)[C@H](Cc1ccccc1)NC(=O)[C@@H](NC(=O)[C@H](Cc1ccccc1)NC(=O)[C@@H]1CCCN1C(=O)[C@H](CCCCN)NC(=O)[C@H](CC(N)=O)NC(=O)[C@H](Cc1ccccc1)NC(=O)[C@H](CCCCN)NC(=O)[C@@H](N)C(C)C)C(C)C)C(=O)N[C@@H](CCC(=O)O)C(=O)N[C@@H](CCC(N)=O)C(=O)N[C@@H](CC(N)=O)C(=O)N[C@H](C(=O)N[C@@H](CCCCN)C(=O)O)[C@@H](C)O [SP16] |  | hERG inhibition (comment) (hERG): does not inhibit hERG; also recorded: No concentration-dependent inhibition; effect on 111 human receptors (111 human receptors): no effect; Last Time point [1]: 8 h |
| A A A N K P F V F L M I E Q N T K (AAANKPFVFLMIEQNTK; listed as Homo sapiens) [SP37, SP16 with residues 1-3 substituted with alanines] |  | impact on TLR-2 signaling (alanine scan) (TLR-2): no impact on TLR2 |
